Read-outs that look alike come from different tables or passages of the source. Bridge positions count the residues as written; N and C are the ends. Square brackets hold non-standard residues; d marks the D form. Triazole bridges read from a SMILES are 1,4-linked. Peptide text beside a SMILES is read from it. * marks the point of attachment. Biotinyl(3aR,4R,6aS) = O=C1N[C@@H]2[C@@H](CS[C@@H]2CCCCC(=O)*)N1; dTrp(1-Me) = Cn1cc(C[C@@H](N)C(=O)O)c2ccccc21; Lys(N3) = [N-]=[N+]=NCCCC[C@H](N)C(=O)O; AEEEA = NCCOCCOCCOCC(=O)O; Pra = C#CC[C@H](N)C(=O)O
Columns and labels:
[1] = target: T1, His-tagged IDO1 human recombinant protein (Homo sapiens, UniProt P14902); assay: IDO1 ELISA (Affinity Assay): sandwich ELISA, biotinylated ligand immobilized on NEUTRAVIDIN plate; type: binding; conditions: a solution of 200 nM macrocycle was immobilized; read-out: EC50, sandwich ELISA for human IDO1 protein against biotin-PEG3-modified macrocycle
T1 construct: purchased BPS Biosciences 71182
T1 sequence (P14902 whole entry): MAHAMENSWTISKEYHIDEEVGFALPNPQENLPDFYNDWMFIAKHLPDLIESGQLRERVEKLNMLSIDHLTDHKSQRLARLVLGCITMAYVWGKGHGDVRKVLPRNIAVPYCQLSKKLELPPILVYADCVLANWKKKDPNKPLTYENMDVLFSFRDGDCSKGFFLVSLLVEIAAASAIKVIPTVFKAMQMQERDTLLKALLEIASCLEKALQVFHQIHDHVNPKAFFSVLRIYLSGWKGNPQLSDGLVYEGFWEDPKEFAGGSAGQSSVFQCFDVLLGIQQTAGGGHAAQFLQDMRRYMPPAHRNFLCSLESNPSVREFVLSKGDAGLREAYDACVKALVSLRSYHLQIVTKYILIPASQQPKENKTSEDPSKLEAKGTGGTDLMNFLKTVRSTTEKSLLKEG

[2] = target: murine IDO1 protein (Mus musculus, UniProt P28776); assay: ELISA against murine IDO1 protein (species cross-reactivity); type: binding
murine IDO1 protein, sequence (P28776 whole entry): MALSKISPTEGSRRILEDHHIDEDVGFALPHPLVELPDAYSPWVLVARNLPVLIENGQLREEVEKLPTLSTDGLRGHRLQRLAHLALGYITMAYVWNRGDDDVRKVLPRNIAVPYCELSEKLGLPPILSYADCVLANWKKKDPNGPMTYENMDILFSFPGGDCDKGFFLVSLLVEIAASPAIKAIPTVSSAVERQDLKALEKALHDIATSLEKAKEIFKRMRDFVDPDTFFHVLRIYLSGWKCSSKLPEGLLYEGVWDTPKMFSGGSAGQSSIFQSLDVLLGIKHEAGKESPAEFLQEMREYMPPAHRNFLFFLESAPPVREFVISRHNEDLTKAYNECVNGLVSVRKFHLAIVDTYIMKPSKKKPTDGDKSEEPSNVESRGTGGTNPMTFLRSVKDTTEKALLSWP
Protocol: Protocol: A black 96-well NEUTRAVIDIN® Coated High Binding Capacity plate (15510, Pierce) was coated with 2 μM biotinylated macrocyclic peptide ligand in TBS (25 mM Tris-HCl, 150 mM NaCl, pH 7.6) for 2 h at room temperature. The plate was aspirated and then washed with Wash Buffer (0.05% (v/v) TWEEN® 20 in PBS, 6×). His-tagged IDO1 human recombinant protein (71182, BPS Biosciences) was serially diluted in Wash Buffer (from 200 to 0 nM) and incubated in the designated microwells for 1 h at room temperature. Microwells were aspirated and subsequently washed with Wash Buffer (11×). To detect the bound IDO1 protein, Alkaline Phosphatase (AP)-conjugated Anti-6×HIS TAG® antibody [HIS-1] (ab49746, Abcam) was prepared at 1:10,000 dilution and added to the microwells for 1 h at room temperature. The plate was aspirated and washed with Wash Buffer (5×). ATTOPHOS® AP Fluorescent Substrate System (S1000, Promega) was employed to develop the microwells. Using an excitation wavelength of 430 nm, fluorescent emission at 535 nm was recorded by Beckman Coulter DTX880 photometer. Titration curves were fit using a four-parameter regression curve fitting program to determine EC50 values.
To test for cross-reactivity with murine IDO1, the human IDO1 targeted macrocyclic peptide ligands were assayed against the murine IDO1 protein by ELISA.

[3] = target: T1, His-tagged IDO1 human recombinant protein; assay: IDO1 ELISA (Affinity Assay): sandwich ELISA, biotinylated ligand immobilized on NEUTRAVIDIN plate; type: binding
[4] = Percent organic elution in reverse-phase HPLC (C18) as lipophilicity readout; type: physicochemical; conditions: Table 12; C18, A=water+0.1% TFA, B=acetonitrile+0.1% TFA
Description: The predicted increase in lipophilicity for wyvay (SEQ ID NO:2) was experimentally confirmed by the percent organic (% B) elution during reverse-phase HPLC (RP-HPLC) using a C18 column where solvents A=water+0.1% TFA and B=acetonitrile+0.1% TFA.

Cn1cc(C[C@H]2NC(=O)[C@@H](CO)NC(=O)[C@@H](Cc3ccc(O)cc3)NC(=O)[C@@H](CCCNC(=N)N)NC(=O)[C@@H](NC(=O)COCCOCCOCCNC(=O)CCCC[C@H]3SC[C@H]4NC(=O)N[C@H]43)Cc3cn(nn3)CCCC[C@@H](C(N)=O)NC(=O)[C@@H](CCCNC(=N)N)NC2=O)c2ccccc21 [rys(Me-Trp)r, biotin-PEG3-Cy(rys(Me-Trp)r)] ({Biotinyl(3aR,4R,6aS)-AEEEA}-[Pra][dR][dY][dS][dTrp(1-Me)][dR][Lys(N3)]-NH2; triazole 1-7)
EC50 [1]: 81 nM | EC50 ([2]; Table 10, read-out: Mouse IDO EC50): 17 nM | EC50 ([3]; Table 10, read-out: Human IDO EC50): 91 ± 22 nM

C[C@H]1NC(=O)[C@@H](CCCNC(=N)N)NC(=O)[C@@H](Cc2ccc(O)cc2)NC(=O)[C@@H](Cc2c[nH]c3ccccc23)NC(=O)[C@@H](NC(=O)COCCOCCOCCNC(=O)CCCC[C@H]2SC[C@H]3NC(=O)N[C@H]32)CC2=CC(CCCC[C@@H](C(N)=O)NC(=O)[C@@H](Cc3ccc(O)cc3)NC1=O)N=N2 (some centres unmarked) [wyray, biotin-PEG3-Cy(wyray)]
Selectivity human versus mouse IDO1 by ELISA ([2]; FIG. 2F): selectivity for the human recombinant protein over mouse is observed | EC50 ([3]; 2 μM biotinylated macrocycle immobilized, human IDO1 titrated 200 to 0 nM, read-out: EC50, sandwich ELISA for human IDO1 protein against biotin-PEG3-modified macrocycle): 25 nM | EC50 ([3]; Example 9, read-out: Binding affinity (EC50) of prioritized Epitope 1 hits): 25 nM | EC50 ([3]; Table 12, read-out: EC50): 25 nM | HPLC % B [4]: 25.7%

From patent publication US12216122B2, “Compositions and methods relating to detection, inhibition, and imaging of indoleamine 2,3-dioxygenase 1 (IDO1)” (Regeneron Pharmaceuticals, Inc., priority 2019, dated 2025)
